# Data taken from paper PMC11650361 (Archiv Der Pharmazie, 2024).
# Like-named read-outs stand apart in the source and are kept apart here.
# Tests used:
# [1] = molecular target: T1, PAS of Electrophorus electricus AChE (EeAChE) (Electrophorus electricus, UniProt O42275); assay type: binding; conditions: 20 µM compound concentration
# T1 construct: purchased Sigma-Aldrich type VI-S; host or cells: electric eel tissue
# Procedure: The ability of the test compounds to competitively displace propidium was evaluated by the fluorescence method,^[ [65] ^] as described in detail in Makhaeva et al.^[ [66] ^] […] After 15 min of incubation of the test compounds at a concentration of 20 μM with a 7 μM solution of EeAChE in 1 mM Tris‐HCl buffer, pH 8.0, 25°C, propidium iodide (final concentration 8 μM) was added. Then, the solutions were incubated for 15 min and the fluorescence spectrum was recorded (530 nm (excitation) and 600 nm (emission)). […] Measurements were performed in triplicate on a FLUOStar Optima microplate reader (BMG LabTech).
# The 7 μM EeAChE was incubated with the test compound at a concentration of 20 μM in 1 mM Tris-HCl buffer pH 8.0, 25 °C, for 15 min. After that, propidium iodide was added at final concentration of 8 μM. The samples were incubated for 15 min and the fluorescence spectrum (530 nm (excitation) and 600 nm (emission)) was taken. […] The measurements were carried out in triplicate on a FLUOStar Optima microplate reader. The degree of propidium displacement (% displacement) from the PAS of EeAChE was calculated by formula (1):
# % Displacement = 100 – (IFAChE+ Propidium + inhibitor / IFAChE + Propidium) × 100 (1),
# where IFAChE + Propidium is the fluorescence intensity of the propidium associated with AChE in the absence of the test compound (taken as 100%), and IFAChE + Propidium + inhibitor is the fluorescence intensity of the propidium associated with AChE in the presence of the test compound.
# [2] = molecular target: β‐amyloid (1–42) (Aβ42) (Homo sapiens, UniProt P05067); assay: Inhibition of Aβ42 self-aggregation (thioflavin T fluorescence); assay type: biochemical; conditions: for inhibition at 100 µM: read-out: Inhibition of Aβ42 self‐aggregation, %
# Procedure: Inhibition of Aβ42 self‐aggregation by test compounds was studied using the ThT fluorescence method^[ [67], [68] ^] with minor modifications as described in detail in Makhaeva et al.^[ [16] ^] Lyophilized hexamfluoroisopropanol‐pretreated Aβ42 (GenicBio Limited, 1 mg) was dissolved in DMSO to obtain a stable 500 μM solution. […] Myricetin and propidium iodide in the same concentration were used as references. […] Each assay was run in triplicate.
# ^c The inhibitory effect of the test compounds toward Aβ42 self-aggregation was determined using the thioflavin T (ThT) fluorescence method ^[5-7] with minor modifications as described in detail in ^[8]. Lyophilized HFIP-pretreated Aβ42 from BACHEM (Bubendorf, Switzerland) was used. […] Myricetin and propidium iodide were used as reference compounds (positive controls). Analyses were performed with a FLUOStar Optima microplate reader (LabTech, Ortenberg, Germany). The inhibition (%) of Aβ42 self-aggregation by the test compounds was calculated by the following equation: […]
# where IFi and IFo are the fluorescence intensities obtained for Aβ42 in the presence and in the absence of inhibitor, respectively, after subtracting the fluorescence of respective blanks.
# [3] = molecular target: T2, equine serum BChE (Equus caballus, UniProt P81908); assay: biochemical
# T2 construct: purchased Sigma-Aldrich; Milamed, Perm, Russia (supplement); host or cells: horse serum
# [4] = molecular target: T3, human erythrocyte AChE (Homo sapiens, UniProt P22303); assay: biochemical; assay type: biochemical; conditions: for IC50: human erythrocyte AChE, mean ± SEM, n = 3
# T3 construct: purchased Sigma-Aldrich; Milamed, Perm, Russia (supplement); host or cells: human erythrocytes
# [5] = test system: porcine liver CES; assay: In vitro CES inhibition (4-NPA substrate); assay type: biochemical; conditions: for CES inhibition, %: % inhibition at 20 μM, n.a. = not active
# Procedure: The esterase profile of the synthesized conjugates was determined. This included an assessment of their inhibition of cholinergic targets AChE and BChE along with a structurally related enzyme CES (EC 3.1.1.1), which hydrolyzes numerous ester‐containing drugs and is considered as an off‐target for anti‐AD agents.^[ [9], [40] ^] Human erythrocyte AChE, equine serum BChE, and porcine liver CES were used.^[ [40], [41], [42] ^]
# Initially, we used a single concentration of 20 µM for all compounds.
# ^a All experiments were carried out in accordance with the standard protocols approved by IPAС RAS. Human erythrocyte AChE, equine serum BChE were purchased from Milamed (Perm, Russia). Porcine liver CES, substrates, and reference compounds were from Sigma-Aldrich (St. Louis, MO, USA). The activity of enzymes was measured spectrophotometrically, as described in detail in ^[1] using ATCh iodide, BTCh iodide, and 4-NPA as substrates for AChE, BChE, and CES, respectively. Experimental conditions: K,Na-phosphate buffer (100 mM), 25 °С, pH 7.5 for AChE and BChE and pH 8.0 for CES assay. Measurements were carried out on a FLUOStar Optima microplate reader (BMG Labtech, Ortenberg, Germany). Test compounds were dissolved in DMSO; final concentration of solvent in the incubation mixture was 2% (v/v).
# [6] = molecular target: T4, eqBChE (Equus caballus, UniProt P81908); assay: Kinetic study of BChE inhibition, steady-state inhibition constants; assay type: biochemical; conditions: for αK i (noncompetitive inhibition constant), eqBChE / Ki: means ± SEM; for Ki: read-out: K i (competitive inhibition constant), eqBChE
# T4 construct: purchased Sigma-Aldrich; Milamed, Perm, Russia (supplement); host or cells: horse serum
# Procedure: (§1) We assessed the mechanisms of AChE and BChE inhibition by performing a thorough analysis of enzyme kinetics. After a 5 min incubation at 25°C (for temperature equilibration) with three increasing concentrations of inhibitor and six decreasing substrate concentrations, the residual enzyme activity was measured as described above for enzymatic assays.
# [7] = molecular target: T5, AChE (Homo sapiens, UniProt P22303); assay: Kinetic study of AChE inhibition, steady-state inhibition constants; assay type: biochemical; conditions: for αK i (noncompetitive inhibition constant), AChE / Ki: means ± SEM; for Ki: read-out: K i (competitive inhibition constant), AChE
# T5 construct: purchased Sigma-Aldrich; Milamed, Perm, Russia (supplement); host or cells: human erythrocytes
# Procedure: as §1
# [8] = ABTS radical cation scavenging activity assay; conditions: for IC50: concentration reducing ABTS radical by 50%, 1 h; for ABTS^•+‐scavenging activity, TEAC: relative to Trolox, 1 h incubation, n.a. = inactive
# [9] = test system: SH‐SY5Y (human neuroblastoma) cells; assay: Cytotoxicity, MTT assay, SH-SY5Y; assay type: cell-based; conditions: MTT, 24 h, mean ± SEM, n = 3, read-out: SH‐SY5Y IC50
# [10] = test system: HepG2 cells (human hepatocellular carcinoma); assay: Cytotoxicity, MTT assay, HepG2; assay type: cell-based; conditions: HepG2, MTT, 24 h, mean ± SEM, n = 3, read-out: Hep G2 IC50
# [11] = test system: HEK293T (human embryonic kidney) cells; assay: Cytotoxicity, MTT assay, HEK293T; assay type: cell-based; conditions: HEK-293T, MTT, 24 h, mean ± SEM, n = 3, read-out: HEK293T IC50
# [12] = equine serum BChE, mean ± SEM, n = 3
# T5 sequence (P22303 32-617 isoform P22303-2 limits assumed): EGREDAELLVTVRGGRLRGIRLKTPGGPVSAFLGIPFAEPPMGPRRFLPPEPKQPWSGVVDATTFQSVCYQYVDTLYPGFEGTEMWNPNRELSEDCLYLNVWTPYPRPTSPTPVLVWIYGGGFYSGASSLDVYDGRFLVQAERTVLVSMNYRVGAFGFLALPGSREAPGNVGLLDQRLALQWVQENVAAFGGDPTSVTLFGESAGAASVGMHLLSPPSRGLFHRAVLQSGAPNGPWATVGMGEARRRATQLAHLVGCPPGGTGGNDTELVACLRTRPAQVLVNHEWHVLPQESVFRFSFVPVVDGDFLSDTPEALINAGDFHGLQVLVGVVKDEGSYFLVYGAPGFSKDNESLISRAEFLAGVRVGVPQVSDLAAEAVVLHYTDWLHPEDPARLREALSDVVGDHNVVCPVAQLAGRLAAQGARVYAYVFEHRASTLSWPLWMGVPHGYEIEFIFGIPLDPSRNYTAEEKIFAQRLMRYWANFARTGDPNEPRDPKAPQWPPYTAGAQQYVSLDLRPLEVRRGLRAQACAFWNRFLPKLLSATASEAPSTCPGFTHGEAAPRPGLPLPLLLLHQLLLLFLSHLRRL
# T3 sequence (P22303 32-617 isoform P22303-2 limits assumed): as above
# T2 sequence (P81908 whole entry): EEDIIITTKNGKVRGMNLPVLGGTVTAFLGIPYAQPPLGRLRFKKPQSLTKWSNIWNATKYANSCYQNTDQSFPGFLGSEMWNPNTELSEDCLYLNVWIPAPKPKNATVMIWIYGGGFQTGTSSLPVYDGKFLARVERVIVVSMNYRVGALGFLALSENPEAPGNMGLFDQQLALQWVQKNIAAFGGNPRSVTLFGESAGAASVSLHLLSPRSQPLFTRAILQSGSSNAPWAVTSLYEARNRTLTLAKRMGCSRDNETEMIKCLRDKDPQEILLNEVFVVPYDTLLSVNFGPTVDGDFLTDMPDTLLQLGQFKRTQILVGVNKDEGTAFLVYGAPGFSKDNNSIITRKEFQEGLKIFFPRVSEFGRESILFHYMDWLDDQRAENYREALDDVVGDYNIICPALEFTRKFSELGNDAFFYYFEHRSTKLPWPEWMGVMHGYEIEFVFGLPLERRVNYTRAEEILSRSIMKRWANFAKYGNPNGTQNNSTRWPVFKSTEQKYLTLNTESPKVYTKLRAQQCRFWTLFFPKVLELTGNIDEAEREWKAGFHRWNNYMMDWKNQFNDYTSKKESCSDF
# T4 sequence (P81908 whole entry): as above
# T1 sequence (O42275 24-633): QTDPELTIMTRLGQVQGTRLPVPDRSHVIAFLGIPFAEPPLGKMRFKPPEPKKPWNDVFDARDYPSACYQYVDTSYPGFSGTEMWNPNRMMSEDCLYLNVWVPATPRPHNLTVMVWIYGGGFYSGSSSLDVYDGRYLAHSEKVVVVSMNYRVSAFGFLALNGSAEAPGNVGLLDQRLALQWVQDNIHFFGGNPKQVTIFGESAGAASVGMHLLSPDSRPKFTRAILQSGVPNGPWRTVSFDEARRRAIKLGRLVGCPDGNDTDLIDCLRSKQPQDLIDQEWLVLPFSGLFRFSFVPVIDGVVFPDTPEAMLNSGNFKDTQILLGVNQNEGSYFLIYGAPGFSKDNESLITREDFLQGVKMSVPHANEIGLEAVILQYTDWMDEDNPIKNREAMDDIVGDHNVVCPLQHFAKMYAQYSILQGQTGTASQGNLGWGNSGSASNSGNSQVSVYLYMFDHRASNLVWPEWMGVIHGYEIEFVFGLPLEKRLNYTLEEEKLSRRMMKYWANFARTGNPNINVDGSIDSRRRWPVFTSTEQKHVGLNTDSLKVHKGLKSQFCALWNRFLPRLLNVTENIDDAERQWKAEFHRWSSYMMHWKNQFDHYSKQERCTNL
# Chain of β‐amyloid (1–42) (Aβ42) (P05067 672-713 limits assumed): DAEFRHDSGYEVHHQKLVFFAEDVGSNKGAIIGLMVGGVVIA
SMILES,"Propidium displacement, % [1]","CES inhibition, % [5]","inhibition at 100 µM ([2]; Aβ42 50 µM, compound 100 µM) [%]",Selectivity index IC50AChE/IC50BChE [3],"IC50 [3, 12] [µM]",IC50 [8] [µM],"ABTS^•+‐scavenging activity, TEAC [8]",IC50 [4] [µM],also measured
"O=[N+]([O-])c1ccc(OP(=O)(O)Oc2ccc([N+](=O)[O-])cc2)cc1 [BNPP, Bis‐4‐nitrophenyl phosphate, reference compound]",n.а.,–,–,–,–,–,–,–,"Inhibition of Aβ42 self‐aggregation, % ([2]; Aβ42 50 µM, compound 100 µM): n.а.; BChE inhibition, % ([3]; 20 µM): n.а.; AChE inhibition, % ([4]; 20 µM): n.а."
"COc1cc2c(cc1OC)C(=O)C(CC1CCN(Cc3ccccc3)CC1)C2 (centres unmarked) [Donepezil, reference compound]",–,n.а.,–,–,–,–,–,–,inhibition at 100 µM [2]: 90.7 ± 7.1%
"O=C(NCCCCCCNc1c2c(nc3c1CCC3)CCCC2)c1ccccc1O [7b, N‐{6‐[(2,3,5,6,7,8‐Hexahydro‐1H‐cyclopenta[b]quinolin‐9‐yl)amino]hexyl}−2‐hydroxybenzamide]",11.6 ± 0.9%,12.3 ± 1.2%,53.4 ± 4.2,193,0.022 ± 0.001,17.6 ± 0.7,0.98 ± 0.04,4.24 ± 0.08,"αK i (noncompetitive inhibition constant), eqBChE [6]: 19.2 ± 0.9 nM; Ki [6]: 0.0142 ± 0.0011 µM; αK i (noncompetitive inhibition constant), AChE [7]: 6.25 ± 0.44 µM; Ki [7]: 2.6 ± 0.19 µM"
"O=C(NCCCCCCCCNc1c2c(nc3c1CCC3)CCCC2)c1ccccc1O [7c, N‐{8‐[(2,3,5,6,7,8‐hexahydro‐1H‐cyclopenta[b]quinolin‐9‐yl)amino]octyl}−2‐hydroxybenzamide]",11.8 ± 0.8%,32.9 ± 0.9%,74.1 ± 5.1,138,0.0111 ± 0.0001,19.4 ± 0.6,0.94 ± 0.04,1.53 ± 0.03,"IC50 [9]: 7.99 ± 0.3 µM; IC50 [10]: 6.92 ± 1.22 µM; BChE inhibition, times more effective than amiridine [3]: 25 times; IC50 [3]: 0.011 ± 0.0001 µM; IC50 [11]: 3.62 ± 0.02 µM"
"Oc1ccccc1CNCCCCNc1c2c(nc3c1CCC3)CCCC2 [10a, 2‐[({4‐[(2,3,5,6,7,8‐Hexahydro‐1H‐cyclopenta[b]quinolin‐9‐yl)amino]butyl}amino)methyl]phenol]",13.6 ± 0.9%,6.2 ± 0.5%,30.5 ± 2.4,12.1,0.198 ± 0.019,10.1 ± 0.5,1.5 ± 0.08,2.4 ± 0.15,"IC50 [9]: 90.8 ± 1.3 µM; IC50 [10]: 27.6 ± 1.3 µM; ABTS^•+‐scavenging activity, TEAC ([8]; listed as 10a as): 1.5; IC50 [11]: 4.49 ± 0.27 µM"
"CCCCCCN=Cc1ccccc1O [compound 12, 2‐[(hexylimino)methyl]phenol]",–,1.9 ± 0.1%,–,–,–,93.3 ± 4.1,0.15 ± 0.008,–,"inhibition at 20 µM [3]: 10.6 ± 0.1%; AChE inhibition, % ([4]; % inhibition at 20 μM, n.a. = not active): n.а."
"Oc1ccccc1CNCCCCCCCCNc1c2c(nc3c1CCC3)CCCC2 [10c, 2‐[({8‐[(2,3,5,6,7,8‐Hexahydro‐1H‐cyclopenta[b]quinolin‐9‐yl)amino]octyl}amino)methyl]phenol]",15.8 ± 1.1%,56.3±0.3 (IC50= 10.5±0.1 µM) %,96.7 ± 6.7,12.0,0.022 ± 0.0002,10.1 ± 0.6,1.48 ± 0.05,0.265 ± 0.018,"IC50 [9]: 10.9 ± 0.6 µM; IC50 [10]: 4.19 ± 0.2 µM; IC50 ([5]; porcine liver CES): 10.5 ± 0.1 µM; IC50 [11]: 2.33 ± 0.15 µM; AChE inhibition, times more active than amiridine [4]: about 17 times"
"CC[N+](C)(CC)CCC[n+]1c(-c2ccccc2)c2cc(N)ccc2c2ccc(N)cc21.[I-].[I-] [Propidium iodide, reference compound]",–,–,–,–,–,–,–,–,"Inhibition of Aβ42 self‐aggregation, % ([2]; Aβ42 50 µM, compound 100 µM): 90.7 ± 7.1%"
"O=c1c(O)c(-c2cc(O)c(O)c(O)c2)oc2cc(O)cc(O)c12 [Myricetin, reference compound]",–,–,79.4 ± 6.3,–,–,–,–,–,–
"Cc1c(C)c2c(c(C)c1O)CCC(C)(C(=O)O)O2 (centres unmarked) [Trolox, 6-hydroxy-2,5,7,8-tetramethychroman-2-carboxylic acid, reference compound]",–,–,–,–,–,19.7 ± 1.4,1.0,–,–
"CCCCCCNc1c2c(nc3c1CCC3)CCCC2 [compound 11, N‐hexyl‐2,3,5,6,7,8‐hexahydro‐1H‐cyclopenta[b]quinolin‐9‐amine]",–,5.6 ± 0.6%,–,16.4,0.262 ± 0.008,–,–,4.3 ± 0.32,–
"O=C(O)c1ccccc1O [Salicylic acid, reference compound]",–,8.9 ± 0.6%,–,–,–,–,did not show activity,–,–
"Oc1ccccc1C=NCCCCCCNc1c2c(nc3c1CCC3)CCCC2 [9b, 2‐[({6‐[(2,3,5,6,7,8‐Hexahydro‐1H‐cyclopenta[b]quinolin‐9‐yl)amino]hexyl}imino)methyl]phenol]",–,–,–,–,–,–,–,–,"αK i (noncompetitive inhibition constant), eqBChE [6]: 89.0 ± 7.1 nM; Ki [6]: 0.0501 ± 0.0048 µM; αK i (noncompetitive inhibition constant), AChE [7]: 4.98 ± 0.33 µM; Ki [7]: 1.76 ± 0.12 µM"
"CCCCCCNCc1ccccc1O [compound 13, 2‐[(hexylamino)methyl]phenol]",–,14.8 ± 0.5%,–,–,–,10.7 ± 0.4,1.52 ± 0.07,–,inhibition at 20 µM [3]: 26.9 ± 0.5%; inhibition at 20 µM [4]: 14 ± 0.6%
"Oc1ccccc1CNCCCCCCNc1c2c(nc3c1CCC3)CCCC2 [10b, 2‐[({6‐[(2,3,5,6,7,8‐Hexahydro‐1H‐cyclopenta[b]quinolin‐9‐yl)amino]hexyl}amino)methyl]phenol]",–,–,79.2 ± 5.5,–,0.0294 ± 0.0006,–,–,1.19 ± 0.05,"Type of BChE inhibition ([6]; Lineweaver–Burk analysis): mixed type of inhibition; αK i (noncompetitive inhibition constant), eqBChE [6]: 45.4 ± 4.1 nM; Ki [6]: 0.021 ± 0.0006 µM; Type of AChE inhibition ([7]; Lineweaver–Burk analysis): mixed type of inhibition; αK i (noncompetitive inhibition constant), AChE [7]: 1.50 ± 0.03 µM; Ki [7]: 0.656 ± 0.011 µM"
